Measured values published in article PMC3664642, “A Peptide against Soluble Guanylyl Cyclase α1: A New Approach to Treating Prostate Cancer” (PLoS ONE, 2013).
Where no end group is shown, it is not given here.

Assays:
LNCaP cells = experiment: Proliferation of LNCaP cells without or with R1881 (MTT); assay type: cell-based; settings: 2% serum without or with 1 nM R1881; 50 µM peptide; day 6; Fig. 3A; averages of three independent experiments; P<0.03 vs Vehicle
Description: (§1) For proliferation, cells were grown in medium containing 2% FBS extracted with dextran-coated charcoal (DCC). 48 hours later, ethanol or 1 nM R1881 was added to the cells followed by peptide treatment. The MTT assay (Sigma) was used as before to determine cell number. For apoptosis, 5000 cells were seeded in 96-well plates and treated with Vehicle (DMSO), Peptide A-8R (25 µM), Etoposide (50 µM) (Sigma) at different time points. The Caspase (3/7) activity was measured using Apo-ONE Homogeneous Caspase-3/7 assay kit (Promega). PARP cleavage was also used to measure apoptosis, and is described below.
Vehicle or different concentrations of Peptide A-8R or C-8R, as shown, was added to (A) hormone-dependent LNCaP cells grown in 2% serum without or with 1 nM R1881, (C) castration-resistant C81 or CWR-22Rv1 cells, or (E) sGCα1-deficient PC-3 or Cos cells. Cell number was measured after various days of incubation. Data points represent averages of three independent experiments plus standard deviations. Asterisks indicate statistical significance (P<0.03) of Peptide A activity, relative to Vehicle. Western blotting was used to monitor expression of endogenous sGCα1 in (B) C81 and CWR-22Rv1 cells, treated without or with 1 nM R1881, or (E) PC-3 and Cos cells, as compared to LNCaP cells. Note that β-actin was used to control for protein loading.

C81 cells = experiment: Proliferation/cytotoxicity, castration-resistant C81 cells (MTT); assay type: cell-based; settings: different concentrations; Fig. 3C; averages of three independent experiments; P<0.03 vs Vehicle
Description: LNCaP, C81, PC-3 and Cos cells were grown as previously described. CWR-22Rv1 cells were cultured in RMPI-1640 medium with 10% FBS and 50 µg/ml Gentamicin (Gibco). Control siRNA, sGCα1 siRNA and AKT siRNA (Dharmacon) at 50 nM final concentration was transfected into cells using Lipofectamine siMAX (Invitrogen).
as §1
Vehicle or different concentrations of Peptide A-8R or C-8R, as shown, was added to (A) hormone-dependent LNCaP cells grown in 2% serum without or with 1 nM R1881, (C) castration-resistant C81 or CWR-22Rv1 cells, or (E) sGCα1-deficient PC-3 or Cos cells. Cell number was measured after various days of incubation. Data points represent averages of three independent experiments plus standard deviations. […]

[1] = tested on: PARP cleavage in LNCaP cells; experiment: PARP cleavage by Western blot, LNCaP cells; assay type: cell-based; settings: 50 µM each drug, 8 hrs, Fig. 5D
Description: as §1
Western blotting was performed as described using primary antibodies against sGCα1 (Cayman Chemical), pan-Akt (Cell Signaling Technology), phospho-AKT (S473, T308) (Cell Signaling Technology), phospho-PDK1 (Cell Signaling Technology), phospho-GSK-3β (Cell Signaling Technology), PARP (Cell Signaling Technology), and β-Actin (Abcam).
Figure 5 Peptide A-8R induces apoptosis of prostate cancer cells. (A) LNCaP, (B) PC-3, or (C) Cos cells were treated with Vehicle, Peptide A-8R (10 µM), or Etoposide (20 µM) for 0–24 hrs and subjected to a Caspase assay to measure apoptosis. […] (D) LNCaP cells were treated with Vehicle, Peptide C-8R, Peptide A-8R, or Etoposide (each drug at 50 µM) for 8 hrs and monitored for apoptosis by measuring PARP cleavage using Western blotting. […]

sGCα1 = biological target: T1, sGCα1 (Homo sapiens, UniProt Q02108); experiment: Binding affinity by immunoprecipitation with FITC-tagged peptide; parameters: endogenous sGCα1 was immunoprecipitated; endogenous in cells; host or cells: C81 cells (methods); settings: C81 whole-cell extract (legend: LNCaP extract), room temperature, 2 hours, IP with anti-sGCα1, fluorescence 485/521 nm, nonlinear regression
T1 sequence (Q02108 1-690): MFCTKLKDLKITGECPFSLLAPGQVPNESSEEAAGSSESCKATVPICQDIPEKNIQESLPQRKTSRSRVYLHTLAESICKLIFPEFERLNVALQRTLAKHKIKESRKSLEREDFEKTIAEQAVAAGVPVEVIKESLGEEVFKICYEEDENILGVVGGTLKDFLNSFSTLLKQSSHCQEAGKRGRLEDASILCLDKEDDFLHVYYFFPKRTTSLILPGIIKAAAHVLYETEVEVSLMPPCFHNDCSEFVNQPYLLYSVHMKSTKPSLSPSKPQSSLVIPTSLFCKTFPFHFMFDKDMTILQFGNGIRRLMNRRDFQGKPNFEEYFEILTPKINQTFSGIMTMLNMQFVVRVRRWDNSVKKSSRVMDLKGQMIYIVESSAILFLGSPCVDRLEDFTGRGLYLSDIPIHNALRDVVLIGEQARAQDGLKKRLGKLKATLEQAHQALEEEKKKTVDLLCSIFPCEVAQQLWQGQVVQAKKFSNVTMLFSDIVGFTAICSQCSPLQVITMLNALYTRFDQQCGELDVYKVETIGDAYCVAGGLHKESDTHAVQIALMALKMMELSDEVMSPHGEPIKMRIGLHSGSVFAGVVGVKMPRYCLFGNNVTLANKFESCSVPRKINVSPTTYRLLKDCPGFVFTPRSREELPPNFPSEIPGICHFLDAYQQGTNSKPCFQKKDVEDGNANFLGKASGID
Description: For binding affinity experiments, whole-cell extract from C81 cells was incubated with different concentrations of Peptide A-8R tagged with FITC at room temperature for 2 hours. IPs were performed using antibodies against sGCα1 or rabbit IgG as control. Peptide A-8R-FITC pulldown was measured by fluorescence signal at excitation and emission wavelengths of 485 and 521 nm, respectively, using a multi-well fluorescence plate reader.
Figure 2 Peptide A-8R interacts with sGCα1 in prostate cancer cells. (A) LNCaP cells were treated with 25 µM Biotin-labeled Peptide A-8R for 2 hrs and subjected to immunocytochemistry using anti-sGCα1 or anti-Biotin antibody to measure subcellular co-localization of endogenous sGCα1 and Peptide A-8R. DAPI was used to stain nuclei. (B) LNCaP cytosolic extracts were incubated with Peptide A-8R-Biotin and subjected to purification using streptavidin-agarose. This pull-down experiment was repeated with competing excess amount of unlabeled Peptide C-8R or Peptide A-8R. In both cases Western blotting was used to measure the co-purification of sGCα1. (C) LNCaP cell extract was incubated with different concentrations of Peptide A-8R-FITC and endogenous sGCα1 was immunoprecipitated. Co-purified Peptide A-8R-FITC was quantified by measuring fluorescence signal emission. […] Cell number was measured after 0–48 hrs of incubation. […]

Ac-TFCKAFPFHIIRRRRRRRR [Peptide A-8R]
cytotoxic activity with or without androgen, LNCaP (LNCaP cells): same potent cytotoxic activity with or without androgen, causing all cells to perish by day 6 when treated with 50 µM peptide
suppression of growth of C81 cells (C81 cells): very effective at suppressing the growth of C81 cells (Fig. 3C), matching the effect on hormone-dependent LNCaP cells
induction of PARP cleavage [1]: to the same extent as by Etoposide
Kd (sGCα1): 11.6 µM
